Experimental data reported in US9006451B1, “2-anilinonicotinyl based chalcones useful as potential anticancer agents and process for preparation thereof” (Council of Scientific and Industrial Research, priority 2013, dated 2015).
Where two headings read alike, the source gives them in different places.

What was measured:
Format in all cases: cell-based
[1] = system: RXF 393; experiment: NCI 60 human tumor cell line screen (SRB): RXF 393; settings: RXF 393, Renal, 48 hours, read-out: GI50 values (μM conc.)
Procedure: (§1) The in vitro anticancer activity studies for these chalcone analogues were carried out at the National Cancer Institute, USA.
(§2) The chalcone compounds have been tested at NCI, USA, against sixty human tumor cell lines derived from nine cancer types (leukemia, non-small cell lung cancer, colon cancer, CNS cancer, melanoma cancer, ovarian cancer, renal cancer, prostate cancer and breast cancer). For these compounds results are expressed as growth inhibition (GI50) values as per NCI protocol.
(§3) We describe here the development and implementation of a pilot-scale, in vitro, anticancer drug screen utilizing a panel of 60 human tumor cell lines organized into subpanels representing leukemia, melanoma, and cancers of the lung, colon, kidney, ovary, and central nervous system. The ultimate goal of this disease-oriented screen is to facilitate the discovery of new compounds with potential cell line-specific and/or subpanel-specific antitumor activity. In the current screening protocol, each cell line is inoculated onto microtiter plates, then preincubated for 28 hours. Subsequently, test agents are added in five 10-fold dilutions and the culture is incubated for an additional 48 hours. For each test agent, a dose-response profile is generated. End-point determinations of the cell viability or cell growth are performed by in situ fixation of cells, followed by staining with a protein-binding dye, sulforhodamine B (SRB). The SRB binds to the basic amino acids of cellular macromolecules; the solubilized stain is measured spectrophotometrically to determine relative cell growth or viability in treated and untreated cells.

[2] = system: OVCAR-3; experiment: NCI 60 human tumor cell line screen (SRB): OVCAR-3; settings: OVCAR-3, Ovarian, 48 hours, read-out: GI50 values (μM conc.)
Procedure: as §1, §2, §3

[3] = system: UACC-257; experiment: NCI 60 human tumor cell line screen (SRB): UACC-257; settings: UACC-257, Melanoma, 48 hours, read-out: GI50 values (μM conc.)
Procedure: as §1, §2, §3

[4] = system: NCI-H322M; experiment: NCI 60 human tumor cell line screen (SRB): NCI-H322M; settings: Non-small cell lung, 48 hours, read-out: GI50 values (μM conc.)
Procedure: as §1, §2, §3

[5] = system: T-47D; experiment: NCI 60 human tumor cell line screen (SRB): T-47D; settings: T47D, Breast, 48 hours, read-out: GI50 values (μM conc.)
Procedure: as §1, §2, §3

[6] = system: KM12; experiment: NCI 60 human tumor cell line screen (SRB): KM12; settings: KM12, Colon, 48 hours, read-out: GI50 values (μM conc.)
Procedure: as §1, §2, §3

[7] = system: OVCAR-4; experiment: NCI 60 human tumor cell line screen (SRB): OVCAR-4; settings: OVCAR-4, Ovarian, 48 hours, read-out: GI50 values (μM conc.)
Procedure: as §1, §2, §3

[8] = system: MDA-MB-231/ATCC; experiment: NCI 60 human tumor cell line screen (SRB): MDA-MB-231/ATCC; settings: Breast, 48 hours, read-out: GI50 values (μM conc.)
Procedure: as §1, §2, §3

[9] = system: MCF7; experiment: NCI 60 human tumor cell line screen (SRB): MCF7
Procedure: as §1, §2, §3

[10] = system: NCI-H522; experiment: NCI 60 human tumor cell line screen (SRB): NCI-H522; settings: NCI-H522, Non-small cell lung, 48 hours, read-out: GI50 values (μM conc.)
Procedure: as §1, §2, §3

[11] = system: NCI-H460; experiment: NCI 60 human tumor cell line screen (SRB): NCI-H460; settings: NCI-H460, Non-small cell lung, 48 hours, read-out: GI50 values (μM conc.)
Procedure: as §1, §2, §3

[12] = system: IGROV1; experiment: NCI 60 human tumor cell line screen (SRB): IGROV1; settings: IGROV-1, IGROV1, Ovarian, 48 hours, read-out: GI50 values (μM conc.)
Procedure: as §1, §2, §3

[13] = system: ACHN; experiment: NCI 60 human tumor cell line screen (SRB): ACHN; settings: Renal, 48 hours, read-out: GI50 values (μM conc.)
Procedure: as §1, §2, §3

[14] = system: SW-620; experiment: NCI 60 human tumor cell line screen (SRB): SW-620; settings: SW-620, Colon, 48 hours, read-out: GI50 values (μM conc.)
Procedure: as §1, §2, §3

[15] = system: RPMI-8226; experiment: NCI 60 human tumor cell line screen (SRB): RPMI-8226; settings: RPMI-8226, Leukemia, 48 hours, read-out: GI50 values (μM conc.)
Procedure: as §1, §2, §3

[16] = system: PC-3; experiment: NCI 60 human tumor cell line screen (SRB): PC-3; settings: PC-3, Prostate, 48 hours, read-out: GI50 values (μM conc.)
Procedure: as §1, §2, §3

[17] = system: SF-268; experiment: NCI 60 human tumor cell line screen (SRB): SF-268; settings: SF-268, CNS, 48 hours, read-out: GI50 values (μM conc.)
Procedure: as §1, §2, §3

[18] = system: NCI-H23; experiment: NCI 60 human tumor cell line screen (SRB): NCI-H23; settings: NCI-H23, Non-small cell lung, 48 hours, read-out: GI50 values (μM conc.)
Procedure: as §1, §2, §3

[19] = system: HT29; experiment: NCI 60 human tumor cell line screen (SRB): HT29; settings: HT-29, HT29, Colon, 48 hours, read-out: GI50 values (μM conc.)
Procedure: as §1, §2, §3

[20] = system: SNB-19; experiment: NCI 60 human tumor cell line screen (SRB): SNB-19; settings: SNB-19, CNS, 48 hours, read-out: GI50 values (μM conc.)
Procedure: as §1, §2, §3

[21] = system: SF-295; experiment: NCI 60 human tumor cell line screen (SRB): SF-295; settings: SF-295, CNS, 48 hours, read-out: GI50 values (μM conc.)
Procedure: as §1, §2, §3

[22] = system: SK-OV-3; experiment: NCI 60 human tumor cell line screen (SRB): SK-OV-3; settings: SK-OV-3, Ovarian, 48 hours, read-out: GI50 values (μM conc.)
Procedure: as §1, §2, §3

[23] = system: UACC-62; experiment: NCI 60 human tumor cell line screen (SRB): UACC-62; settings: UACC-62, Melanoma, 48 hours, read-out: GI50 values (μM conc.)
Procedure: as §1, §2, §3

[24] = system: CCRF-CEM; experiment: NCI 60 human tumor cell line screen (SRB): CCRF-CEM; settings: Leukemia, 48 hours, read-out: GI50 values (μM conc.)
Procedure: as §1, §2, §3

[25] = system: MDA-MB-468; experiment: NCI 60 human tumor cell line screen (SRB): MDA-MB-468; settings: MDA-MB-468, Breast, 48 hours, read-out: GI50 values (μM conc.)
Procedure: as §1, §2, §3

[26] = system: MALME-3M; experiment: NCI 60 human tumor cell line screen (SRB): MALME-3M; settings: Melanoma, 48 hours, read-out: GI50 values (μM conc.)
Procedure: as §1, §2, §3

[27] = system: MOLT-4; experiment: NCI 60 human tumor cell line screen (SRB): MOLT-4; settings: MOLT-4, Leukemia, 48 hours, read-out: GI50 values (μM conc.)
Procedure: as §1, §2, §3

[28] = system: SR; experiment: NCI 60 human tumor cell line screen (SRB): SR; settings: Leukemia, 48 hours, read-out: GI50 values (μM conc.)
Procedure: as §1, §2, §3

[29] = system: HCT-116; experiment: NCI 60 human tumor cell line screen (SRB): HCT-116; settings: HCT-116, Colon, 48 hours, read-out: GI50 values (μM conc.)
Procedure: as §1, §2, §3

[30] = MCF7, Breast, 48 hours, SRB, read-out: GI50 values (μM conc.)
[31] = MCF7, comparison table, read-out: GI50 μM in MCF7

Compound	GI50 [1] [µM]	GI50 [2] [µM]	GI50 [3] [µM]	GI50 [4] [µM]	GI50 [5] [µM]	GI50 [6] [µM]	GI50 [7] [µM]	GI50 [8] [µM]	GI50 [9, 30] [µM]	GI50 [9, 31] [µM]	GI50 [10] [µM]	GI50 [11] [µM]	GI50 [12] [µM]	GI50 [13] [µM]	GI50 [14] [µM]	GI50 [15] [µM]	GI50 [16] [µM]	GI50 [17] [µM]	GI50 [18] [µM]	GI50 [19] [µM]	other results
COc1cc(/C=C/C(=O)c2cccnc2Nc2ccc(F)cc2)cc(OC)c1OC [7f, (E)-1-(2-(4-Fluorophenylamino)pyridin-3-yl)-3-(3,4,5-trimethoxyphenyl)prop-2-en-1-one]	2.81	2.63	2.9	4.83	3.06	3.72	3.81	3.07	2.44	2.44	2.69	2.83	7.42	2.84	3.3	2.43	3.95	4.18	2.34	2.75	GI50 [20]: 3.73 µM; GI50 [21]: 4.16 µM; GI50 [22]: 3.1 µM; GI50 [23]: 2.35 µM; GI50 [24]: 2.45 µM; GI50 [25]: 1.77 µM; GI50 [26]: 6.9 µM; GI50 [27]: 2.75 µM; GI50 [28]: 1.93 µM; GI50 [29]: 1.54 µM
COc1cc(C(=O)/C=C/c2cccnc2Nc2ccc(Cl)cc2)cc(OC)c1OC [6ax, (E)-3-(2-(4-Chlorophenylamino)pyridin-3-yl)-1-(3,4,5-trimethoxyphenyl)prop-2-en-1-one]	1.26	1.31	1.5	1.95	1.42	1.83	1.51	1.49	1.02	1.02	1.46	1.92	2.24	1.77	0.95	0.65	1.44	1.72	1.58	1.43	GI50 [20]: 1.52 µM; GI50 [21]: 1.93 µM; GI50 [22]: 1.72 µM; GI50 [23]: 1.54 µM; GI50 [24]: 0.37 µM; GI50 [25]: 1.29 µM; GI50 [26]: 1.91 µM; GI50 [27]: 2.55 µM; GI50 [28]: 0.77 µM; GI50 [29]: 0.56 µM
